{"source": "patent US8148365B2", "about": "(priority 2006, dated 2012)", "target": "α7-subtype of nicotinic receptors (Rattus norvegicus, UniProt Q05941)", "sequence (Q05941 23-502)": "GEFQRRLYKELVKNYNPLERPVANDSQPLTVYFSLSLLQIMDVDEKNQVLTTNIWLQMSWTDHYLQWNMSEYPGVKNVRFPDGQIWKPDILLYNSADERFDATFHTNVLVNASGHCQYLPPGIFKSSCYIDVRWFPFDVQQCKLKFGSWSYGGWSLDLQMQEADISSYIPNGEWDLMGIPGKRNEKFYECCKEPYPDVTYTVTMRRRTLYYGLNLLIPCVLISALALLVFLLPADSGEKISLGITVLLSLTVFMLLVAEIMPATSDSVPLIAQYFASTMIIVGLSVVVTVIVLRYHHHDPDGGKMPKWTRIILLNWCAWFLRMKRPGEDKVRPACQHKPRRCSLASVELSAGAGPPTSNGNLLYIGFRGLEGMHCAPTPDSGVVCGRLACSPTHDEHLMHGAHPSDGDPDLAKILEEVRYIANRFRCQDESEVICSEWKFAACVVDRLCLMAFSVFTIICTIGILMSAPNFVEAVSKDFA", "assay": "biochemical", "assay_type": "binding", "note": "pIC50: −log10 of the molar value. Counter-ions that a name gives are not always drawn."}
{"compound": "O=C(Nc1cnc(N2CCN3CCC2CC3)nc1)c1ccccc1", "note": "[Compound 1, N-[2-(1,4-Diaza-bicyclo[3.2.2]non-4-yl)-pyrimidin-5-yl]-benzamide hydrochloric acid salt]", "values": [{"measurement": "pIC50", "value": "> 7.00"}]}
